Test results reported in ChEMBL document CHEMBL1128810, “Glutamine-derived aldehydes for the inhibition of human rhinovirus 3C protease” (Bioorg Med Chem Lett, 1995).
Where a SMILES comes first, the peptide text is derived from it. The star is where a group is joined. Boc = CC(C)(C)OC(=O)*

Each compound was assayed on Nucleic Acid (assay: In vitro ability to selectively inhibit the translation of rhinoviral RNA in translation assay). Conditions: Human rhinovirus sp.
Assay type: functional

| Structure (SMILES) | Activity [µM] |
| --- | --- |
| CC(C)CC(=O)N[C@@H](Cc1ccccc1)C(=O)N[C@H](C=O)CCC(N)=O | > 200 |
| CC(=O)N[C@@H](CC(C)C)C(=O)N[C@@H](Cc1ccccc1)C(=O)N[C@H](C=O)CCC(N)=O (Ac-Leu-Phe-Gln-aldehyde) | 170 |
| CC(C)C[C@H](NC(=O)[C@@H](NC(=O)OC(C)(C)C)C(C)C)C(=O)N[C@@H](Cc1ccccc1)C(=O)NCC=O (Boc-VLFG-aldehyde) | 180 |
| CC(C)C[C@H](NC(=O)[C@@H](NC(=O)OC(C)(C)C)C(C)C)C(=O)N[C@@H](Cc1ccccc1)C(=O)N[C@H](C=O)CCC(N)=O (Boc-VLFQ-aldehyde) | 10 |

The compounds below were run on rhinovirus B14 (assay: Inhibitory activity against human rhinovirus-14 in cell culture). Conditions: Rhinovirus B; read-out: ED50 (the source's name).
Assay type: functional

| Structure (SMILES) | EC50 [µM] |
| --- | --- |
| CC(C)C[C@H](NC(=O)[C@@H](NC(=O)OC(C)(C)C)C(C)C)C(=O)N[C@@H](Cc1ccccc1)C(=O)N[C@H](C=O)CCC(N)=O (Boc-VLFQ-aldehyde) | 500 |

What follows are compounds tested against T1, Human rhinovirus A protease (Human rhinovirus sp., UniProt Q4U254) (assay: Inhibitory activity against human rhinovirus-14 Protease 3C). Conditions: not given.
T1 sequence (Q4U254 whole entry): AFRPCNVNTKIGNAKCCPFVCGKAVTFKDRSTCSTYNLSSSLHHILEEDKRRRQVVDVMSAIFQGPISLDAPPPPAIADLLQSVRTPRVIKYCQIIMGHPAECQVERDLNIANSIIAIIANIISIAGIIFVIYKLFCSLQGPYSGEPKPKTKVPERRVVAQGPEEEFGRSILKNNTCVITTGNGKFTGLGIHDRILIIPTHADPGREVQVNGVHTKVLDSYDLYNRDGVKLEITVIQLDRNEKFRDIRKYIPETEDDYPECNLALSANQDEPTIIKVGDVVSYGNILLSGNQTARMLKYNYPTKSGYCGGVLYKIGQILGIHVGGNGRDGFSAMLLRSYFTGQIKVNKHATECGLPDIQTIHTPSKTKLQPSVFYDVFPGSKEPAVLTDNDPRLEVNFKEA
Set-up: species or system rhinovirus B14

| Structure (SMILES) | IC50 [µM] |
| --- | --- |
| CC(C)CC(=O)N[C@@H](Cc1ccccc1)C(=O)N[C@H](C=O)CCC(N)=O | > 80 |
| CC(C)(C)OC(=O)N[C@@H](Cc1ccccc1)C(=O)N[C@H](C=O)CCC(N)=O | > 80 |
| CC(=O)NCC(=O)N[C@@H](Cc1ccccc1)C(=O)N[C@H](C=O)CCC(N)=O (Ac-Gly-Phe-Gln-aldehyde) | 16 |
| CC(=O)N[C@@H](CC(C)C)C(=O)N[C@@H](Cc1ccccc1)C(=O)N[C@H](C=O)CCC(N)=O (Ac-Leu-Phe-Gln-aldehyde) | 2.7 |
| CC(C)C[C@H](NC(=O)OC(C)(C)C)C(=O)N[C@@H](Cc1ccccc1)C(=O)N[C@H](C=O)CCC(N)=O (Boc-Leu-Phe-Gln-aldehyde) | > 80 |
| CC(C)C[C@H](NC(=O)[C@@H](NC(=O)OC(C)(C)C)C(C)C)C(=O)N[C@@H](Cc1ccccc1)C(=O)NCC=O (Boc-VLFG-aldehyde) | 10 |
| CC(C)C[C@H](NC(=O)[C@@H](NC(=O)OC(C)(C)C)C(C)C)C(=O)N[C@@H](Cc1ccccc1)C(=O)N[C@H](C=O)CCC(N)=O (Boc-VLFQ-aldehyde) | 0.6 |
| CC(C)C[C@H](N)C(=O)N[C@@H](Cc1ccccc1)C(=O)N[C@H](C=O)CCC(N)=O (H-Leu-Phe-Gln-aldehyde) | 1 |

What follows are compounds tested on Nucleic Acid (assay: In vitro ability to selectively inhibit the translation of rhinoviral RNA in translation assay; Toxic). Conditions: Human rhinovirus sp.
Assay type: functional

| Structure (SMILES) | Activity |
| --- | --- |
| CC(C)C[C@H](N)C(=O)N[C@@H](Cc1ccccc1)C(=O)N[C@H](C=O)CCC(N)=O (H-Leu-Phe-Gln-aldehyde) | Toxic |
